Consider 22 compounds from PubChem BioAssay (NCI).

Some test systems named below: HCC-2998 colon; HOP-92 NSCLC; OVCAR-8 ovarian; SF-268 CNS; SK-MEL-2 melanoma; K-562 leukemia; MALME-3M melanoma.
Common to all, as to assay: NCI-60 cell line screen, 48 h

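Following 48 hours of exposure in 96-well plates, responses at five concentrations were used to interpolate endpoints linearly. TGI marks complete inhibition of growth.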 *1 amine or outer side, *2 acyl side, *3 side chain or, on linkers, in order; H or OH if unused. Where a SMILES comes first, the peptide text is derived from it. [ ]: non-standard residue; d: D form. X33 = C=CCC(O[*:1])C(=O)[*:2]; NMeV = CN[CH](C(=O)O)C(C)C; NMeA = CN[CH](C)C(=O)O; βAla = NCCC(=O)O

For `C=CCC1OC(=O)CCNC(=O)C(C)N(C)C(=O)C(C(C)C)N(C)C(=O)C(C(C)CC)NC(=O)C2CCCN2C1=O` (stereo not given) (cyclo([X33]PI[NMeV][NMeA][βAla]); configuration not given here), the TGI in the test with HCC-2998 colon, in the test on HOP-92 NSCLC, in the test on OVCAR-8 ovarian, with SF-268 CNS and with SK-MEL-2 melanoma was over 100 µM in each case.
Turning to `CCOc1ncn(-c2ccc(NC(=S)NC34CC5CC(CC(C5)C3)C4)cc2)n1`, the TGI is over 100 µM with HCC-2998 colon; 60.6 µM with HOP-92 NSCLC; over 100 µM in the test on K-562 leukemia; 64.3 µM in the test with OVCAR-8 ovarian; over 100 µM in the test with SF-268 CNS.
In the case of `O=C(CCCN1CCC2(CC1)CC(=O)N(N1CCCCCC1)C2=O)c1ccc(F)cc1`, the TGI was over 100 µM in the test with K-562 leukemia; over 100 µM in the test on MALME-3M melanoma; 34.7 µM with OVCAR-8 ovarian; over 100 µM in the test on SF-268 CNS; over 100 µM in the test with SK-MEL-2 melanoma.
As for `CC(=O)N1N(c2ccc([N+](=O)[O-])cc2)C(=O)C1(C)C`, the TGI with HCC-2998 colon turned out to be 29.7 µM; with K-562 leukemia, 60.5 µM; in the test with MALME-3M melanoma it was 56 µM; in the test with OVCAR-8 ovarian it was 59 µM; in the test with SF-268 CNS it was 87.1 µM; with SK-MEL-2 melanoma, 37.4 µM.
For the compound `C[n+]1cccc2ccc(OC(=O)c3ccccc3)cc21`, the TGI with HOP-92 NSCLC, in the test with K-562 leukemia, in the test with MALME-3M melanoma, in the test with OVCAR-8 ovarian, with SF-268 CNS and in the test with SK-MEL-2 melanoma was over 100 µM each time.
As for `O=C(Cc1ccccc1)NCCCN(CCCCN(CCCNC(=O)Cc1ccccc1)C(=O)OCc1ccccc1)C(=O)OCc1ccccc1`, the TGI in the test on HCC-2998 colon, with HOP-92 NSCLC, in the test on K-562 leukemia, in the test with OVCAR-8 ovarian, with SF-268 CNS and in the test with SK-MEL-2 melanoma was over 100 µM throughout.
On to `NNCCc1n[nH]c(=O)n1N`, for which the TGI in the test with HCC-2998 colon, with HOP-92 NSCLC, with K-562 leukemia, in the test on MALME-3M melanoma, in the test with OVCAR-8 ovarian and in the test with SF-268 CNS was over 100 µM in each case.
As for `COc1ccc(C(=O)/C=C/c2cccnc2)cc1OC`, the TGI in the test with HOP-92 NSCLC is 26.7 µM; in the test on K-562 leukemia, 43.8 µM; in the test with MALME-3M melanoma it was 28.5 µM; in the test with OVCAR-8 ovarian, 18.6 µM; in the test on SF-268 CNS, 26.7 µM; in the test with SK-MEL-2 melanoma it was 27.3 µM.
Regarding `CCOC(=O)Nc1nn(C)c(=NCc2ccccc2)s1`, the TGI in the test on HOP-92 NSCLC, in the test with K-562 leukemia and with SK-MEL-2 melanoma was over 100 µM throughout.
Turning to `CC(=O)O[C@H]1CCn2c3c(c(C)c21)C(=O)C(N1CC1)=C(C)C3=O`, the TGI in the test on HCC-2998 colon, in the test with K-562 leukemia, in the test on MALME-3M melanoma, in the test on OVCAR-8 ovarian, with SF-268 CNS and in the test with SK-MEL-2 melanoma was over 10 µM each time.
`Clc1nc(NCCc2ccccc2)c2ncn(-c3ccccc3)c2n1`: the TGI was 45.5 µM in the test with HCC-2998 colon; 70.5 µM in the test on K-562 leukemia; 52.4 µM with MALME-3M melanoma; 90.6 µM in the test on OVCAR-8 ovarian; over 100 µM in the test on SF-268 CNS; 19.9 µM in the test with SK-MEL-2 melanoma.
Turning to `O=C1C(=Nc2ccccc2)Oc2cc(O)ccc21`, the TGI in the test with HCC-2998 colon, with K-562 leukemia, with MALME-3M melanoma, with OVCAR-8 ovarian, in the test with SF-268 CNS and in the test with SK-MEL-2 melanoma was over 100 µM in each case.
Take `CN(C)CCn1c(=O)c2ccc3c4c(nn3CCN(C)C)c3cc(O)ccc3n(c1=O)c24`: the TGI came to 0.176 µM in the test on HCC-2998 colon; 1.56 µM in the test with K-562 leukemia; 0.982 µM in the test with MALME-3M melanoma; 0.124 µM with OVCAR-8 ovarian; 0.591 µM in the test with SF-268 CNS; 0.576 µM with SK-MEL-2 melanoma.
For `Nc1ncnc2c1cnn2Cc1cn(COCC(O)CO)nn1` (stereo not given), the TGI was over 100 µM with HCC-2998 colon; over 100 µM in the test on HOP-92 NSCLC; over 100 µM with OVCAR-8 ovarian; 34.9 µM in the test on SF-268 CNS; over 100 µM with SK-MEL-2 melanoma.
As for `NC(CCC(=O)O)(CCC(=O)O)CCC(=O)O`, the TGI in the test with HOP-92 NSCLC, with K-562 leukemia, in the test with MALME-3M melanoma, with OVCAR-8 ovarian, in the test with SF-268 CNS and in the test with SK-MEL-2 melanoma was over 100 µM throughout.
Regarding `O=S(=O)(O)c1ccc2c(N=Nc3ccc(F)cc3)c(O)c(S(=O)(=O)O)cc2c1`, the TGI with HOP-92 NSCLC, in the test with K-562 leukemia, in the test with MALME-3M melanoma, with OVCAR-8 ovarian, with SF-268 CNS and in the test with SK-MEL-2 melanoma was over 100 µM each time.
As to `O=C1CC(C(=O)N2CCCCC2)n2c(=O)n(-c3ccccc3)c(=O)n2C1` (stereo not given), the TGI in the test with HCC-2998 colon, in the test on MALME-3M melanoma, in the test with OVCAR-8 ovarian and in the test with SF-268 CNS was over 100 µM each time.
For the compound `Nc1nc(N)c2[nH]cnc2n1` (tested in a mixture with another compound), the TGI is over 100 µM with HOP-92 NSCLC; over 100 µM with K-562 leukemia; over 100 µM with MALME-3M melanoma; over 100 µM in the test with OVCAR-8 ovarian; over 100 µM in the test on SF-268 CNS; 77.5 µM in the test with SK-MEL-2 melanoma.
On to `O=C1CCCCC/C1=C\c1ccc(Cl)cc1`, for which the TGI is 96.2 µM with HCC-2998 colon; 98 µM in the test with HOP-92 NSCLC; over 100 µM with MALME-3M melanoma; 55.5 µM in the test on SF-268 CNS; over 100 µM in the test with SK-MEL-2 melanoma.
In the case of `CCN(CC)C(=S)N=Nc1c(O)[nH]c2ccccc12`, the TGI in the test with HOP-92 NSCLC is 8.52 µM; with K-562 leukemia, 5.31 µM; in the test on MALME-3M melanoma, 10.4 µM; in the test with OVCAR-8 ovarian it was 13 µM; in the test with SF-268 CNS, over 100 µM; in the test with SK-MEL-2 melanoma, 23.8 µM.
Take `O=c1oc(-c2ccccc2)c(-c2ccccc2)n1-c1ccc(Br)cc1`: the TGI with HOP-92 NSCLC, in the test with OVCAR-8 ovarian, with SF-268 CNS and in the test on SK-MEL-2 melanoma was over 100 µM in each case.
Take `Oc1ccc(/C=C/c2ccc3cccc(O)c3n2)cc1O`: the TGI is 26.9 µM in the test with HCC-2998 colon; over 100 µM in the test with HOP-92 NSCLC; over 100 µM in the test with K-562 leukemia; over 100 µM in the test with OVCAR-8 ovarian; over 100 µM in the test on SF-268 CNS; 36 µM in the test with SK-MEL-2 melanoma.
